By EC50 is commonly meant the concentration at which the effect is half-maximal.

Here are results for 61 molecules from BindingDB's records for doi:10.7270/Q2TX3CTT (Broad Institute, 2010).

Sequence of Glycogen synthase kinase-3 beta (P49841 whole entry): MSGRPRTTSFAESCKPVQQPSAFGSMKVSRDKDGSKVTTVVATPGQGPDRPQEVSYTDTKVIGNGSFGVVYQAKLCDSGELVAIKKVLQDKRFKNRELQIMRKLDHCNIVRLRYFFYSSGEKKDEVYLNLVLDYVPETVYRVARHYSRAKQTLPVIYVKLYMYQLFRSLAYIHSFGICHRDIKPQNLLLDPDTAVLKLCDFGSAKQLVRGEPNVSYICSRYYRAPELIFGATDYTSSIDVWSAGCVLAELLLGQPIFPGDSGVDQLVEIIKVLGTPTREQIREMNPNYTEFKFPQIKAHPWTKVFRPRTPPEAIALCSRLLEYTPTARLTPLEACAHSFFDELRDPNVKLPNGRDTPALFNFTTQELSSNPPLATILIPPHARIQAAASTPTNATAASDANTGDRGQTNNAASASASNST

This assay concerns the target Glycogen synthase kinase-3 beta (Homo sapiens, UniProt P49841). Briefly: GSK3beta kinase inhibitor potency, dose response, biochemical, luminescence, cell-free homogeneous, retest (AID 434954).
Molecule `COCCn1c(SCC(=O)Nc2cccc(S(N)(=O)=O)c2)nc2ccccc21` [2-[1-(2-methoxyethyl)benzimidazol-2-yl]sulfanyl-N-(3-sulfamoylphenyl)ethanamide] showed an EC50 of over 300 µM.

Molecule `CCn1nc(NC(=O)C2CCCO2)c2cc3cc(C)ccc3nc21` (stereo unspecified) [N-(1-ethyl-6-methyl-pyrazolo[3,4-b]quinolin-3-yl)oxolane-2-carboxamide] displayed an EC50 of over 300 µM.

On to `Fc1ccc(CNc2nc(-c3cccnc3)nc3ccccc23)cc1` [N-[(4-fluorophenyl)methyl]-2-(3-pyridinyl)-4-quinazolinamine], for which the half-maximal effective concentration (EC50) was over 300 µM.

`O=C(CN1C(=O)CCC1=O)Nc1ccc(Cc2ccc(NC(=O)CN3C(=O)CCC3=O)cc2)cc1` [2-(2,5-dioxo-1-pyrrolidinyl)-N-[4-[[4-[[2-(2,5-dioxo-1-pyrrolidinyl)-1-oxoethyl]amino]phenyl]methyl]phenyl]acetamide]: the concentration for a half-maximal effect (EC50) was over 300 µM.

Regarding `COc1cccc(-c2nnc3sc(C4CCCCC4)nn23)c1` [6-cyclohexyl-3-(3-methoxyphenyl)-[1,2,4]triazolo[3,4-b][1,3,4]thiadiazole], the 50% effective concentration (EC50) worked out at 16.3 µM.

`Cc1c(NC(=O)C(C)n2cc([N+](=O)[O-])cn2)c(=O)n(-c2ccccc2)n1C` (stereo unspecified) [N-(1,5-dimethyl-3-oxo-2-phenylpyrazol-4-yl)-2-(4-nitropyrazol-1-yl)propanamide]: the EC50 was over 300 µM.

In turn, `NC(=O)c1c(NC(=O)CN2C(=O)CCC2=O)sc2c1CCCCC2` [SMR000018552] showed a 50% effective concentration (EC50) of over 300 µM.

In the case of `CS(=O)(=O)c1nncn1-c1ccccc1` [MLS000062086], the concentration giving a half-maximal response (EC50) is over 300 µM.

With `COc1ccc(N2CCN(CCNC(=O)c3nnc(Cc4c(F)cccc4Cl)o3)CC2)cc1` [MLS000083714], the EC50 is over 300 µM.

On to `CCSc1nnc(-c2ccncc2)o1` [4-(5-Ethylsulfanyl-[1,3,4]oxadiazol-2-yl)-pyridine], for which the concentration for a half-maximal effect (EC50) was over 300 µM.

The molecule `C=CCNc1nc(N)c([N+](=O)[O-])c(Nc2cccc(Cl)c2)n1` [N4-(3-chlorophenyl)-5-nitro-N2-prop-2-enyl-pyrimidine-2,4,6-triamine] came in with a half-maximal effective concentration (EC50) of 11.8 µM.

Consider `O=C1Nc2cc(C(=O)NCCN3CCCCCC3)ccc2S/C1=C\c1ccccc1` [SMR000635247], for which the half-maximal effective concentration (EC50) is over 300 µM.

In the case of `COc1ccc(C(=O)c2sc(Nc3ccccc3)nc2C)cc1` [MLS001181792], a half-maximal effect (EC50) was put at 32.1 µM.

In turn, `COc1cccc2c1cc1c(=O)n(CC(=O)NCCCc3ccccc3)nc(C)n12` [MLS001076397] displayed a concentration for a half-maximal effect (EC50) of over 300 µM.

Turning to `COc1ccc(-c2nn(CCC(=O)O)cc2/C=C/C(=O)O)cc1[N+](=O)[O-]` [3-[4-[(E)-2-carboxyethenyl]-3-(4-methoxy-3-nitrophenyl)pyrazol-1-yl]propanoic acid], the EC50 is over 300 µM.

`Cc1ccc(CC(=O)Nc2ncc([N+](=O)[O-])s2)cc1` [2-(4-methylphenyl)-N-(5-nitro-1,3-thiazol-2-yl)acetamide] yielded a half-maximal effective concentration (EC50) of 28.8 µM.

Take `Cc1c(CCOC(=O)CC23CC4CC(CC(C4)C2)C3)sc[n+]1CC(=O)c1ccc(Br)cc1` [SMR000155561]: the EC50 is over 300 µM.

For the molecule `CCn1c(SCC(=O)Nc2cc(Cl)ccc2OC)nnc1C1CC1` [MLS001220637], the 50% effective concentration (EC50) was over 300 µM.

`COC(=O)C(C)Oc1cc(OC(C)C(=O)OC)c2c(-c3ccccc3)cc(=O)oc2c1` (stereo unspecified) [methyl 2-[5-(1-methoxy-1-oxopropan-2-yl)oxy-2-oxo-4-phenylchromen-7-yl]oxypropanoate] showed an EC50 of over 300 µM.

With `Nc1ncnc(Nc2cccc(C(F)(F)F)c2)n1`, the 50% effective concentration (EC50) was over 300 µM.

`CNc1nc(N)c([N+](=O)[O-])c(NCCO)n1` had a 50% effective concentration (EC50) of 67.1 µM.

Take `Cc1ccccc1-c1nnc(SCc2ccc(F)cc2)o1` [2-[(4-fluorophenyl)methylsulfanyl]-5-(2-methylphenyl)-1,3,4-oxadiazole]: the 50% effective concentration (EC50) is over 300 µM.

`CCc1ccc(C(=O)c2cnc3ccc(OC)cc3c2N2CCN(CC)CC2)cc1` [(4-ethylphenyl)-[4-(4-ethylpiperazin-1-yl)-6-methoxy-quinolin-3-yl]methanone] yielded an EC50 of 20.7 µM.

On to `CN(C)c1nc(-c2ccccc2)nc(-c2ccc(Cl)cc2)c1C#N` [4-(4-chlorophenyl)-6-(dimethylamino)-2-phenylpyrimidine-5-carbonitrile], for which the concentration for a half-maximal effect (EC50) is over 300 µM.

As to `N#Cc1c(Cl)nc(-c2cccnc2)nc1-c1ccccc1` [MLS001165453], the EC50 is over 300 µM.

`O=C(/[O+]=N/[CH-]c1ccc(N2CCCCC2)c([N+](=O)[O-])c1)c1cccc(Cl)c1` [[(3-nitro-4-piperidin-1-yl-phenyl)methylideneamino] 3-chloranylbenzoate] showed an EC50 of over 300 µM.

In turn, `c1ccc(-c2nnc(-c3ccncc3)nc2-c2ccccc2)cc1` had an EC50 of over 300 µM.

`COc1ccccc1Nc1nc(NCC(C)C)nc(N)c1[N+](=O)[O-]` [SMR000436174]: the 50% effective concentration (EC50) came out at 0.888 µM.

For `Cc1[nH]nc2c1C(c1cccc(O)c1)C1C(=O)CC(C)(C)CC1=N2` (stereo unspecified) [MLS000081979], the EC50 was 0.421 µM.

Turning to `O=C(CN1C(=O)CCC1=O)Nc1ccc(Br)cc1` [N-(4-bromophenyl)-2-(2,5-dioxo-1-pyrrolidinyl)acetamide], the EC50 was over 300 µM.

For `CCN(CC)S(=O)(=O)c1ccc(O)c(C(=O)OCC(=O)Nc2cc(C)c(C)cc2[N+](=O)[O-])c1`, the EC50 is over 300 µM.

Consider `COc1ccccc1N1CCN(/N=C/c2ccc(Cl)c([N+](=O)[O-])c2)CC1`, for which the EC50 is over 300 µM.

The molecule `CC(C(=O)Nc1cccnc1)n1cc([N+](=O)[O-])cn1` (stereo unspecified) [MLS000729046] had an EC50 of over 300 µM.

The molecule `CCSc1nc(-c2ccccc2)c(C#N)c(=O)[nH]1` [2-ethylsulfanyl-4-oxidanylidene-6-phenyl-1H-pyrimidine-5-carbonitrile] came in with an EC50 of over 300 µM.

As for `CCCCC(=O)Nc1nc2c(OC)cc([N+](=O)[O-])cc2s1` [SMR000363192], the EC50 was over 300 µM.

As for `Cc1nc(Nc2ccc(S(N)(=O)=O)cc2)sc1C(=O)Nc1ccccc1` [4-methyl-N-phenyl-2-(4-sulfamoylanilino)-5-thiazolecarboxamide], the concentration giving a half-maximal response (EC50) was over 300 µM.

For `Cc1cc(NC(=O)c2noc3c2CCc2ccccc2-3)n(-c2ccccc2)n1` [MLS000116423], the EC50 was over 300 µM.

Molecule `CCc1n[nH]c(SCC(=O)Nc2ccc(Br)cn2)n1` [N-(5-bromanylpyridin-2-yl)-2-[(5-ethyl-1H-1,2,4-triazol-3-yl)sulfanyl]ethanamide] displayed a 50% effective concentration (EC50) of 17.5 µM.

On to `CCCCOC(=O)C1C(C)=Nc2ncnn2C1c1cc(OC)c(OC)cc1OC` (stereo unspecified) [butyl 5-methyl-7-(2,4,5-trimethoxyphenyl)-4,7-dihydro[1,2,4]triazolo[1,5-a]pyrimidine-6-carboxylate], for which the EC50 is over 300 µM.

`CC(=O)Nc1cc(-c2ccc(Cl)cc2)n[nH]1` [N-[5-(4-chlorophenyl)-1H-pyrazol-3-yl]acetamide] gave a concentration giving a half-maximal response (EC50) of 23.8 µM.

Regarding `Nc1ccc(C(=O)Nc2ccccc2C(=O)O)cc1`, the EC50 is over 300 µM.

Consider `Cc1ccc(C=NNC(=O)COc2ccc(C)cc2[N+](=O)[O-])cc1` [2-(4-methyl-2-nitrophenoxy)-N'-[(1Z)-(4-methylphenyl)methylene]acetohydrazide], for which the 50% effective concentration (EC50) was over 300 µM.

`CC(C)(C)C(=O)c1sc(Nc2ccccc2)nc1N` [1-(4-amino-2-anilino-1,3-thiazol-5-yl)-2,2-dimethyl-1-propanone] returned a concentration for a half-maximal effect (EC50) of 1 µM.

As for `CCN1CCN(c2nc(Nc3cc(OC)ccc3OC)nc(Nc3cc(OC)ccc3OC)n2)CC1` [SMR000439674], the EC50 was over 300 µM.

For the molecule `NC(=S)NN=Cc1cn(CCC(=O)O)nc1-c1cccc(Br)c1` [3-[3-(3-bromophenyl)-4-[(carbamothioylhydrazinylidene)methyl]-1-pyrazolyl]propanoic acid], the concentration for a half-maximal effect (EC50) was over 300 µM.

Turning to `O=C(CSc1ccc2nnc(-c3cccs3)n2n1)N1CCCC1` [1-(1-pyrrolidinyl)-2-[(3-thiophen-2-yl-[1,2,4]triazolo[4,3-b]pyridazin-6-yl)thio]ethanone], the concentration for a half-maximal effect (EC50) was over 300 µM.

In turn, `COc1cccc2c1cc1c(=O)n(CC(=O)N3CCCCCC3)nc(C)n12` [2-[2-(azepan-1-yl)-2-oxidanylidene-ethyl]-9-methoxy-4-methyl-[1,2,4]triazino[4,5-a]indol-1-one] had a 50% effective concentration (EC50) of over 300 µM.

`COC(=O)c1c(N)c(C#N)c2n1CCCCC2` [methyl 2-amino-1-cyano-6,7,8,9-tetrahydro-5H-pyrrolo[1,2-a]azepine-3-carboxylate] registered a 50% effective concentration (EC50) of over 300 µM.

In the case of `COc1ccc(-c2nn(-c3ccccc3)cc2C=NNC(N)=S)cc1OC` [[[3-(3,4-dimethoxyphenyl)-1-phenyl-4-pyrazolyl]methylideneamino]thiourea], the concentration giving a half-maximal response (EC50) was over 300 µM.

The molecule `CCN1CCN(C(=O)c2cc3cc4cc(OC)ccc4nc3s2)CC1` [MLS000091315] came in with an EC50 of over 300 µM.

Molecule `C=C1CSc2nc(=O)c3c4c(sc3n21)CCCC4` [MLS000108332] returned a 50% effective concentration (EC50) of over 300 µM.

`Cc1ccc(N2CCN(C(=O)N3CCOCC3)CC2)c(C)c1` [[4-(2,4-dimethylphenyl)piperazin-1-yl]-morpholin-4-ylmethanone] registered a half-maximal effective concentration (EC50) of over 300 µM.

Take `Nc1nonc1-n1nnc(C(=O)NN=Cc2cccc(Cl)c2)c1CN1CCCCCC1` [MLS000950585]: the EC50 is 4 µM.

With `CC1(C)Nc2ccc(O)cc2-c2c1ssc2=S` [SMR000038969], the response was half-maximal at 21.4 µM (EC50).

In turn, `Cc1cc2c(Nc3ccc(O)cc3)ncnc2s1` [4-(6-Methyl-thieno[2,3-d]pyrimidin-4-ylamino)-phenol] came in with a concentration giving a half-maximal response (EC50) of over 300 µM.

`Cc1ccccc1CSc1ccc2nnc(-c3ccccn3)n2n1` [SMR000323599]: the concentration for a half-maximal effect (EC50) is over 300 µM.

`c1ccc(CNc2ncnc3scc(-c4cccs4)c23)nc1` [N-(pyridin-2-ylmethyl)-5-thiophen-2-yl-thieno[2,3-d]pyrimidin-4-amine] displayed a concentration for a half-maximal effect (EC50) of over 300 µM.

Regarding `C=CCN=C(NC#N)SC` [methyl N-cyano-N'-prop-2-enyl-carbamimidothioate], the concentration giving a half-maximal response (EC50) is over 300 µM.

In turn, `Cc1ccccc1-c1nnc(SCc2ccccc2F)o1` [2-[(2-fluorobenzyl)thio]-5-(2-methylphenyl)-1,3,4-oxadiazole] came in with an EC50 of over 300 µM.

In turn, `N#Cc1c(N)nc2c(c1N)=C(N)SC1=NC(=O)CC(c3ccccc3)C=21` (stereo unspecified) [SMR000147833] showed an EC50 of over 300 µM.

As for `CSc1nc(NCC(C)C)c2c3c(sc2n1)CN(C)CC3` [SMR000148856], the concentration giving a half-maximal response (EC50) was over 300 µM.
